Assay [1] addresses T1, AGO2 MID domain (Homo sapiens, UniProt Q9UKV8).
T1 construct: MID domain Gln432-Leu578 (147 residues); pE-SUMOpro-3 His-SUMO fusion, tag removed by SUMO protease 2; E. coli BL21(DE3); 15N-labelled for NMR
Kind of assay: SPR inhibition, immobilised biotin-PEG-UMP versus AGO2 MID domain. In kind it is binding. Conditions: for IC50: HBS-EP+ pH 7.4, 2 mM DTT, 5% DMSO, competition at the 5'-terminal nucleotide site.

Assay [2] has as its target T1, AGO2 MID domain. Described as above. It counts as binding. The note with it: HBS-EP+ pH 7.4, 2 mM DTT, 5% DMSO; competition at the 5'-terminal nucleotide site.
Assay [3] deals with T1, AGO2 MID domain. The assay is described as follows: 1H-15N HSQC NMR chemical shift perturbation. Conditions: 20 °C, pH 6.70, 25 mM sodium phosphate, 150 mM NaCl, 2 mM TCEP; two binding sites suggested, one overlapping AMP.
For assay [4], the target named is T1, AGO2 MID domain. The assay is described as follows: SPR inhibition, immobilised biotin-PEG-UMP versus AGO2 MID domain. Conditions: read-out: % inhibition at 500 μmol/L. It counts as binding.

Molecules are shown by their SMILES. pIC50: −log10 of the molar value. Read-outs that look alike come from different tables or passages of the source.

In general, pIC50 refers to the IC50 on a negative log10 scale, so that one unit is a factor of ten. On to `Nc1ncnc2c1ncn2[C@@H]1O[C@H](COP(=O)(O)O)[C@@H](O)[C@H]1O` [AMP], for which the pIC50 on AGO2 MID domain [1] (read-out: IC50) was around 3.70.
In the case of `Nc1ccn([C@@H]2O[C@H](COP(=O)(O)O)[C@@H](O)[C@H]2O)c(=O)n1` [CMP], the IC50 entry at AGO2 MID domain [1] is “AMP and UMP showed a stronger inhibition than CMP and GMP”.
On the same count and under the same terms, with `Nc1nc2c(ncn2[C@@H]2O[C@H](COP(=O)(O)O)[C@@H](O)[C@H]2O)c(=O)[nH]1` [GMP] the entry was “AMP and UMP showed a stronger inhibition than CMP and GMP”; with `O=c1ccn([C@@H]2O[C@H](COP(=O)(O)O)[C@@H](O)[C@H]2O)c(=O)[nH]1` [UMP], “AMP and UMP showed a stronger inhibition than CMP and GMP”.
For `COc1cc(C=C2SC(=S)N(C(CCC(=O)O)C(=O)O)C2=O)cc(Cl)c1O` (stereo not drawn) [UZI/1999527], the IC30 entry on AGO2 MID domain [2] is “Three of the hit compounds showed stronger inhibition than BCI-137 in the SPR analysis”.
With `COc1ccc(-c2nn(CCC(=O)O)cc2C=C2SC(=S)NC2=O)cc1` [Z56862757], the “1H-15N HSQC NMR chemical shift perturbation” value at AGO2 MID domain [3] is reported as “NMR analysis suggests two Z56862757 binding sites, only one site could overlap with AMP”. Further, the IC30 entry on AGO2 MID domain [2] is “Three of the hit compounds showed stronger inhibition than BCI-137 in the SPR analysis”.
For `Cc1cccc(C(Nc2ccc3c(c2)OC(F)(F)O3)P(=O)(O)O)c1` (stereo not drawn) [Z317095268], the IC30 entry at AGO2 MID domain [2] is “Three of the hit compounds showed stronger inhibition than BCI-137 in the SPR analysis”.
On to `Nc1ncnc2c1ncn2[C@@H]1O[C@H](CO)[C@@H](O)[C@H]1O` [adenosine], for which, at AGO2 MID domain [4], the inhibition at 500 µM was below 10%.

The values are drawn from article PMC7394379, “Structure-guided screening strategy combining surface plasmon resonance with nuclear magnetic resonance for identification of small-molecule Argonaute 2 inhibitors” (PLoS ONE, 2020).
